Assay [1] concerns Plasmodium falciparum. In words: Antimalarial activity against Plasmodium falciparum Dd2 assessed as inhibition of parasite growth. The format is functional, organism-based.
Assay [2] relates to Plasmodium falciparum. The assay is described as follows: Antimalarial activity against Plasmodium falciparum 3D7 assessed as inhibition of parasite growth. Type of assay: functional, organism-based.
Assay [3] deals with Plasmodium berghei. The assay is described as follows: Antimalarial activity against Plasmodium berghei infected CD-1 mouse assessed as survival beyond 8 days at 256 mg/kg, sc bid. Type of assay: functional, organism-based. The arrangement: dose 256 mg/kg.
Assay [4] relates to Plasmodium falciparum. In words: Antimalarial activity against Plasmodium falciparum D6 assessed as inhibition of parasite growth. The format is functional, organism-based.
Assay [5] concerns Plasmodium falciparum. The assay is described as follows: Antimalarial activity against Plasmodium falciparum W2 assessed as inhibition of parasite growth. The format is functional, organism-based.
Assay [6] can be described thus: Inhibition of Plasmodium falciparum cysteine protease plasmepsin 2.
Assay [7] has as its system Plasmodium falciparum. The assay is described as follows: Antimalarial activity against Plasmodium falciparum delta pfpm4 assessed as growth inhibition. Type of assay: functional, organism-based.
Assay [8] deals with Plasmodium berghei. In words: Antimalarial activity against Plasmodium berghei infected CD-1 mouse assessed as survival beyond 8 days at 128 mg/kg, sc bid. Type of assay: functional, organism-based. The arrangement: dose 128 mg/kg.
Assay [9] concerns Plasmodium falciparum. In words: Antimalarial activity against Plasmodium falciparum delta pfpm1 assessed as growth inhibition. Type of assay: functional, organism-based.
The test system of assay [10] is Plasmodium falciparum. In words: Antimalarial activity against chloroquine-resistant Plasmodium falciparum Dd2 assessed as growth inhibition. Type of assay: functional, organism-based.
Assay [11] relates to Plasmodium falciparum. In words: Antimalarial activity against Plasmodium falciparum delta pfpm3 assessed as growth inhibition. The format is functional, organism-based.
In assay [12] the test system is Plasmodium berghei. The assay is described as follows: Antimalarial activity against Plasmodium berghei infected CD-1 mouse assessed as survival at 128 mg/kg, sc bid measured on day 31. Type of assay: functional, organism-based. The arrangement: dose 128 mg/kg.
Assay [13] has as its system Plasmodium falciparum. The assay is described as follows: Antimalarial activity against Plasmodium falciparum delta pfpm2 assessed as growth inhibition. Type of assay: functional, organism-based.

Calls of active or inactive are those of the source. The rule behind the calls is not given here.

As for `O=C(Nc1ccc(Oc2ccc(Cl)cc2Cl)c(C(F)(F)F)c1)Nc1ccccc1Cc1ccccc1`, the EC50 in the assay on Plasmodium falciparum [1] was 0.6 µg/mL; in the assay on Plasmodium falciparum [2], 0.5 µg/mL.

Turning to `O=C(Nc1ccc(Cl)cc1)Nc1cc(Cl)ccc1Oc1ccc(Cl)cc1Cl`, the results for the EC50 in the assay with Plasmodium falciparum [1] and in the assay with Plasmodium falciparum [2] were 5 µM and 2000 nM, respectively. In addition, the Survival result with Plasmodium berghei [3] was “inactive”.

Turning to `N#Cc1cc(Cl)ccc1Oc1ccc(Cl)cc1Cl`, the EC50 in the assay with Plasmodium falciparum [1] came to 43 µM; in the assay on Plasmodium falciparum [2] it was 20000 nM.

Consider `NCc1cc(Cl)ccc1Oc1ccc(Cl)cc1Cl`, for which the results for the EC50 in the assay on Plasmodium falciparum [1] and with Plasmodium falciparum [2] were 4.3 µM and 2300 nM, respectively.

`CN(C)c1ccc(NC(=O)Nc2cc(C(F)(F)F)ccc2Oc2ccc(Cl)cc2Cl)cc1`: the EC50 in the assay with Plasmodium falciparum [1] was found to be 1.8 µg/mL; in the assay on Plasmodium falciparum [2], 1.4 µg/mL.

Consider `O=C(Nc1cccc(Cc2ccccc2)c1)Nc1cc(C(F)(F)F)ccc1Oc1ccc(Cl)cc1Cl`, for which the EC50 in the assay with Plasmodium falciparum [1] and with Plasmodium falciparum [2] was 0.3 µg/mL throughout.

As to `COc1ccc(NC(=O)Nc2cc(C(F)(F)F)ccc2Oc2ccc(Cl)cc2Cl)cc1C(F)(F)F`, the EC50 in the assay on Plasmodium falciparum [1] was 0.18 µM; in the assay with Plasmodium falciparum [2], 180 nM.

With `Nc1cc(Cl)ccc1Oc1ccc(Cl)cc1Cl`, the EC50 in the assay with Plasmodium falciparum [1] stood at 55 µM; with Plasmodium falciparum [2], 52000 nM.

As for `Clc1ccc(Oc2ccc(Cl)cc2NCc2ccccc2)c(Cl)c1`, the EC50 in the assay with Plasmodium falciparum [1] stood at 9.4 µM; in the assay on Plasmodium falciparum [2] it was 9700 nM.

For the compound `O=C(Nc1ccc(Cl)c(Cl)c1)Nc1cc(Cl)ccc1Oc1ccc(Cl)cc1Cl`, the EC50 in the assay on Plasmodium falciparum [1] was 2.5 µM; in the assay on Plasmodium falciparum [2], 1900 nM. Besides, the Survival result with Plasmodium berghei [3] was “inactive”.

Regarding `O=C(Nc1ccccc1)Nc1cc(Cl)ccc1Oc1ccc(Cl)cc1Cl`, the EC50 in the assay with Plasmodium falciparum [1] came to 1.2 µM; in the assay with Plasmodium falciparum [2], 730 nM.

As for `O=C(Nc1ccc([N+](=O)[O-])c(C(F)(F)F)c1)Nc1cc(C(F)(F)F)ccc1Oc1ccc(Cl)cc1Cl`, the EC50 was determined as 0.072 µM in the assay on Plasmodium falciparum [1] and 72 nM with Plasmodium falciparum [2].

`O=C(Nc1cc(C(F)(F)F)ccc1Oc1ccc(Cl)cc1Cl)NC1c2ccccc2-c2ccccc21`: the EC50 was determined as 1.4 µg/mL in the assay with Plasmodium falciparum [1] and 0.8 µg/mL in the assay with Plasmodium falciparum [2].

As for `CC(C)(N)c1cc(Cl)ccc1Oc1ccc(Cl)cc1Cl`, the results for the EC50 with Plasmodium falciparum [1] and in the assay on Plasmodium falciparum [2] were 1.8 µM and 7200 nM, respectively.

Turning to `O=C(Nc1cc(C(F)(F)F)ccc1Oc1ccc(Cl)cc1Cl)Nc1cccc2ccccc12`, the EC50 in the assay on Plasmodium falciparum [1] was found to be 0.81 µM; in the assay with Plasmodium falciparum [2], 1200 nM. The Survival result with Plasmodium berghei [3] is “inactive”.

Turning to `O=C(Nc1ccc(Cc2ccccc2)cc1)Nc1ccc(Oc2ccc(Cl)cc2Cl)c(C(F)(F)F)c1`, the EC50 was found to be 1.2 µg/mL with Plasmodium falciparum [1] and 1.3 µg/mL with Plasmodium falciparum [2].

Consider `O=C(Nc1ccc2ccccc2c1)Nc1cc(C(F)(F)F)ccc1Oc1ccc(Cl)cc1Cl`, for which the EC50 with Plasmodium falciparum [1] turned out to be 0.41 µM; in the assay on Plasmodium falciparum [2], 610 nM. The Survival entry with Plasmodium berghei [3] is “inactive”.

With `O=C(Nc1cc(Cl)cc(Cl)c1)Nc1cc(C(F)(F)F)ccc1Oc1ccc(Cl)cc1Cl`, the figures for the EC50 in the assay with Plasmodium falciparum [1] and in the assay on Plasmodium falciparum [2] were 0.046 µg/mL and 0.047 µg/mL, respectively.

For the compound `CC(=O)Nc1cc(Cl)ccc1Oc1ccc(Cl)cc1Cl`, the EC50 in the assay on Plasmodium falciparum [1] came to 48 µM; in the assay with Plasmodium falciparum [2], 33000 nM.

Take `NC(=O)Nc1cc(Cl)ccc1Oc1ccc(Cl)cc1Cl`: the EC50 was 18 µM in the assay with Plasmodium falciparum [1] and 18000 nM in the assay with Plasmodium falciparum [2].

Turning to `CN(C(=O)N(C)c1ccc(Cl)c(C(F)(F)F)c1)c1cc(Oc2ccc(Cl)cc2Cl)cc(C(F)(F)F)c1`, the EC50 in the assay on Plasmodium falciparum [1] was found to be 2.4 µg/mL; with Plasmodium falciparum [2], 1.8 µg/mL.

Turning to `NC(=O)c1cc(Cl)ccc1Oc1ccc(Cl)cc1Cl`, the EC50 in the assay with Plasmodium falciparum [1] was determined as 60 µM; with Plasmodium falciparum [2], 73000 nM.

Turning to `O=C(Nc1ccc(Cl)c(Cl)c1)Nc1cc(C(F)(F)F)ccc1Oc1ccc(Cl)cc1Cl`, the EC50 in the assay on Plasmodium falciparum [1] turned out to be 0.2 µM; in the assay with Plasmodium falciparum [2] it was 200 nM.

Take `O=C(Nc1ccc2c(c1)OCO2)Nc1cc(C(F)(F)F)ccc1Oc1ccc(Cl)cc1Cl`: the EC50 was determined as 1.2 µg/mL in the assay with Plasmodium falciparum [1] and 1.1 µg/mL in the assay with Plasmodium falciparum [2].

On to `O=C(NCc1ccco1)Nc1cc(C(F)(F)F)ccc1Oc1ccc(Cl)cc1Cl`, for which the results for the EC50 with Plasmodium falciparum [1] and with Plasmodium falciparum [2] were 2.6 µg/mL and 2.3 µg/mL, respectively.

For the compound `O=C(Nc1ccc(-c2ccccc2)cc1)Nc1cc(C(F)(F)F)ccc1Oc1ccc(Cl)cc1Cl`, the EC50 in the assay with Plasmodium falciparum [1] and in the assay with Plasmodium falciparum [2] was 0.29 µg/mL in each case.

As to `N=C(N)c1ccc(NC(=O)Nc2ccc(Oc3ccccc3)cc2)cc1`, the 50% effective concentration (EC50) with Plasmodium falciparum [4] worked out at 460 nM; in the assay with Plasmodium falciparum [5] it was 87 nM. Further, in [6], it took 17 µM to reach half-maximal inhibition (IC50).

With `O=C(Nc1cccnc1)Nc1cc(C(F)(F)F)ccc1Oc1ccc(Cl)cc1Cl`, the EC50 stood at 1 µg/mL in the assay with Plasmodium falciparum [1] and 0.6 µg/mL in the assay with Plasmodium falciparum [2].

Take `COc1cc(Cl)ccc1Oc1ccc(Cl)cc1Cl`: the results for the EC50 in the assay with Plasmodium falciparum [1] and with Plasmodium falciparum [2] were 76 µM and 100000 nM, respectively.

With `CS(=O)(=O)Nc1cc(Cl)ccc1Oc1ccc(Cl)cc1Cl`, the EC50 in the assay with Plasmodium falciparum [1] stood at 60 µM; in the assay with Plasmodium falciparum [2] it was 38000 nM.

As to `N#Cc1ccc(NC(=O)Nc2cc(C(F)(F)F)ccc2Oc2ccc(Cl)cc2Cl)cc1`, the EC50 with Plasmodium falciparum [1] was 0.11 µg/mL; in the assay with Plasmodium falciparum [2], 0.14 µg/mL.

In the case of `O=C(Nc1cc(C(F)(F)F)ccc1Oc1ccc(Cl)cc1Cl)Nc1cc(C(F)(F)F)ccc1N1CCCCC1`, the results for the EC50 with Plasmodium falciparum [1] and with Plasmodium falciparum [2] were 2.7 µg/mL and 3.9 µg/mL, respectively.

With `O=C(Nc1ccc(Oc2ccc(Cl)cc2O)c(Cl)c1)N1CCOCC1`, the values for the EC50 in the assay on Plasmodium falciparum [1] and in the assay on Plasmodium falciparum [2] were 100 µM and 100000 nM, respectively.

Consider `O=C(Nc1ccc(Cc2ccccc2)cc1)Nc1cc(C(F)(F)F)ccc1Oc1ccc(Cl)cc1Cl`, for which the EC50 with Plasmodium falciparum [1] amounted to 0.3 µg/mL; with Plasmodium falciparum [2] it was 0.6 µg/mL.

On to `NC(=O)Nc1ccc(Oc2ccc(Cl)cc2O)c(Cl)c1`, for which the figures for the EC50 with Plasmodium falciparum [1] and in the assay with Plasmodium falciparum [2] were 100 µM and 100000 nM, respectively.

For `O=C(Nc1ccc(F)c(C(F)(F)F)c1)Nc1cc(C(F)(F)F)ccc1Oc1ccc(Cl)cc1Cl`, the EC50 in the assay with Plasmodium falciparum [1] worked out at 0.15 µM; in the assay on Plasmodium falciparum [2] it was 130 nM.

Regarding `O=C(Nc1ccc(Cl)c(C(F)(F)F)c1)Nc1cc(C(F)(F)F)ccc1Oc1ccc(Cl)cc1Cl`, the results for the EC50 in the assay on Plasmodium falciparum [1] and in the assay on Plasmodium falciparum [2] were 0.055 µM and 37 nM, respectively. Further, the IC50 with Plasmodium falciparum [7] was 66 nM; in the assay with Plasmodium falciparum [9], 70 nM; in the assay with Plasmodium falciparum [10], 42 nM; in the assay with Plasmodium falciparum [11], 35 nM; with Plasmodium falciparum [13] it was 70 nM. Besides, the IC90 in the assay with Plasmodium falciparum [7] was found to be 86 nM; in the assay with Plasmodium falciparum [9], 88 nM; in the assay with Plasmodium falciparum [10] it was 83 nM; in the assay on Plasmodium falciparum [11] it was 70 nM; in the assay on Plasmodium falciparum [13], 88 nM. For the same compound, the Survival entry in the assay on Plasmodium berghei [8] is “Active”. Further, the Survival result in the assay with Plasmodium berghei [12] was “inactive”.

`O=C(O)c1cc(Cl)ccc1Oc1ccc(Cl)cc1Cl`: the figures for the EC50 in the assay on Plasmodium falciparum [1] and in the assay with Plasmodium falciparum [2] were > 150 µM and > 150000 nM, respectively.

In the case of `Nc1ccc(NC(=O)Nc2cc(C(F)(F)F)ccc2Oc2ccc(Cl)cc2Cl)cc1C(F)(F)F`, the EC50 with Plasmodium falciparum [1] was 3.6 µM; in the assay on Plasmodium falciparum [2], 1500 nM.

In the case of `O=C(Nc1cccc(S(=O)(=O)C(F)(F)F)c1)Nc1cc(C(F)(F)F)ccc1Oc1ccc(Cl)cc1Cl`, the EC50 in the assay on Plasmodium falciparum [1] and with Plasmodium falciparum [2] was 0.077 µg/mL in each case.

For `O=C(Nc1cc(C(F)(F)F)ccc1Oc1ccc(Cl)cc1Cl)Nc1ccccc1-c1ccccc1`, the EC50 stood at 0.9 µg/mL in the assay on Plasmodium falciparum [1] and 0.6 µg/mL in the assay on Plasmodium falciparum [2].

With `N#Cc1ccc(NC(=O)Nc2cc(C(F)(F)F)ccc2Oc2ccc(Cl)cc2Cl)cc1C(F)(F)F`, the results for the EC50 with Plasmodium falciparum [1] and in the assay on Plasmodium falciparum [2] were 0.075 µM and 130 nM, respectively.

`O=C(Nc1cccc(Oc2ccccc2)c1)Nc1cc(C(F)(F)F)ccc1Oc1ccc(Cl)cc1Cl`: the EC50 in the assay with Plasmodium falciparum [1] is 0.2 µg/mL; in the assay on Plasmodium falciparum [2], 0.3 µg/mL.

With `N#Cc1cccc(NC(=O)Nc2cc(C(F)(F)F)ccc2Oc2ccc(Cl)cc2Cl)c1`, the EC50 with Plasmodium falciparum [1] and in the assay on Plasmodium falciparum [2] was 0.14 µg/mL throughout.

As for `N#Cc1ccc(NC(=O)Nc2cc(C(F)(F)F)ccc2Oc2ccc(Cl)cc2Cl)cc1C#N`, the EC50 was 0.14 µM with Plasmodium falciparum [1] and 81 nM in the assay on Plasmodium falciparum [2].

Consider `O=S(=O)(Nc1cc(Cl)ccc1Oc1ccc(Cl)cc1Cl)c1ccccc1`, for which the EC50 with Plasmodium falciparum [1] came out at 5.1 µM; with Plasmodium falciparum [2] it was 4700 nM.

On to `O=C(Nc1cc(C(F)(F)F)cc(C(F)(F)F)c1)Nc1cc(C(F)(F)F)ccc1Oc1ccc(Cl)cc1Cl`, for which the EC50 in the assay on Plasmodium falciparum [1] was found to be 0.044 µg/mL; with Plasmodium falciparum [2], 0.037 µg/mL.

Usually EC50 stands for the midpoint of the concentration-response curve. Broadly, the IC50 is the concentration that gives 50% inhibition. A word on the IC90: it is the concentration needed for an effect of 90%.
